Assay results from patent publication US20210386367A1, “DEVICES AND SYSTEMS FOR GASTROINTESTINAL MICROBIOME DETECTION AND MANIPULATION” (Progenity, Inc., priority 2018, published 2021).
Converted amounts (≈) assume the structure as drawn. “And” between values parts separate entries of the source, which are not always exact repeats. Equal values may be shown once. Read-outs that look alike come from different tables or passages of the source.

Assays:
[1] = test system: Enterococcus faecalis clinical isolates; assay: MIC distribution against clinical isolates; format: cell-based
[2] = test system: Streptococcus pyogenes clinical isolates; assay: MIC distribution against clinical isolates; format: cell-based
Description: (§1) As used herein, “minimum inhibitory concentration” or “MIC” refers to the lowest concentration of an antimicrobial agent, for example, an antimicrobial agent as described herein, required to inhibit the growth of an organism. […] “MIC90” represents the MIC value at which ≥90% of the strains within a test population are inhibited; the 90th percentile.
(§2) Many susceptibility testing methods are known in the art and can be used as described herein (see, e.g., Jorgensen and Ferraro (2009) Clinical Infectious Diseases 49:1749-1755; and Maurer et al. (2017) Infectious Disease Reports 9:6839; the entire contents of each of the foregoing are incorporated herein by reference). For example, antimicrobial susceptibility can be determined using conventional culture based methods such as the broth or agar dilution test. In these dilution tests, the bacterial isolate of interest is inoculated onto different media that include serial dilutions of an antimicrobial agent, and incubated under appropriate conditions (e.g., overnight at 37° C.) to allow for growth to occur. Following the incubation period, the media is examined to determine bacterial growth. The lowest concentration of antibiotic that prevents growth represents the minimal inhibitory concentration (MIC). Broth dilution tests can be miniaturized and mechanized allowing for reproducibility and high throughput.

[3] = test system: Viridans group Streptococci clinical isolates; assay: MIC distribution against clinical isolates; format: cell-based; conditions: 15 Viridans group Streptococci isolates
Description: as §1, §2

Streptococcus pyogenes = assay: Broth microdilution MIC, 19 clinical isolates; format: cell-based
Protocol: (§3) Minimal inhibitory concentration (MIC) values were determined by broth microdilution or agar dilution in accordance with guidelines from the Clinical and Laboratory Standards Institute (CLSI; (1) “Methods for Dilution Antimicrobial Susceptibility Tests for Bacteria That Grow Aerobically; Approved Standard; 11th ed.” CLSI standard M07-A11, 2018; (2) “Performance Standards for Antimicrobial Susceptibility Testing; Twenty-Eighth Informational Supplement,” CLSI document M100-S28, 2018; and (3) “Methods for Antimicrobial Susceptibility Testing of Anaerobic Bacteria; Approved Standard—Eighth Edition,” CLSI document M11-A8, 2012).
(§4) Tested aerobically by broth microdilution: • Escherichia coli, n=50 • Klebsiella spp., n=50 • Pseudomonas aeruginosa, n=50 • Streptococcus spp., n=50 • Staphylococcus aureus, n=50 • Enterococcus faecalis, n=50 • Enterobacter aerogenes, n=50 • Proteus mirabilis, n=50
(§5) Broth microdilution testing of aerobic bacteria was conducted in cation-adjusted Mueller Hinton broth (MHBII). For testing streptococci, lysed horse blood (LHB) was added to MHBII broth at a final concentration of 3%. Where LHB was used, it was added after filtering.
(§6) Broth microdilution susceptibility testing in 96-well microplates was conducted in accordance with CLSI methods (1) and (2). Automated liquid handlers were used to conduct serial dilutions and liquid transfers, including the Multidrop 384 (Labsystems, Helsinki, Finland), Biomek 2000, and the Biomek FX (Beckman Coulter, Fullerton, Calif.). All wells in columns 2 through 12 of a standard 96-well microdilution plate (Costar 3795) were filled with 150 μL of the appropriate diluent. Then, 300 μL of the test agents were added to the wells of column 1 of the plates at 100× the highest final concentration to be tested. Serial two-fold dilutions were made across the rows through column 11 using the Biomek 2000. The wells of column 12 contained no drug and served as the growth control wells. This plate served as the “mother plate” from which MIC assay plates or “daughter plates” were made.
(§7) The daughter plates were loaded with 190 μL per well of the appropriate medium using the Multidrop 384. The daughter plates were created using the Biomek FX which transferred 2 μL of drug solution from each well of a mother plate to each corresponding well of the daughter plate in a single step. A standardized inoculum of each test organism was prepared per CLSI methods (1) to equal a 0.5 McFarland standard, followed by a dilution of 1:20 for aerobes and 1:10 for anaerobes. The plates were then inoculated with 10 μL of the diluted inoculum using the Biomek 2000 from low to high drug concentration, resulting in a final concentration of approximately 5×10^5 CFU/mL per well. An un-inoculated plate was incubated in parallel for each medium for the purpose of assessing solubility of the drug in the test media.
(§8) Inoculated plates were stacked 3 or 4 high, covered with a sterile lid on the top plate, placed into boxes with CO2 planchets (streptococci) or plastic bags (all other isolates). Plates were incubated at 35° C. for 16-24 hr in ambient air for aerobes or for 42-48 hr in the anaerobic environment of the Bactron II anaerobe chamber (Sheldon Manufacturing Co.; Cornelius, Oreg.). Following incubation, the microplates were removed from the incubator and viewed from the bottom using a plate viewer. The MIC values were read and recorded as the lowest concentration of drug that inhibited visible growth of the organism as per CLSI methods (1) and (2).

Streptococcus agalactiae = assay: Broth microdilution MIC, 20 clinical isolates; format: cell-based; conditions: for Mode: modal MIC
Protocol: as §3, §4, §5, §6, §7, §8

E. coli MMX 1312 = assay: Broth microdilution MIC (time-kill study); format: cell-based, Escherichia coli; conditions: E. coli MMX 1312
[4] = MIC >32 μg/mL, 50 E. faecalis isolates
[5] = 20 Streptococcus agalactiae clinical isolates
[6] = MIC 1 μg/mL, 50 E. faecalis isolates
[7] = MIC 2 μg/mL, 50 E. faecalis isolates
[8] = MIC 4 μg/mL, 50 E. faecalis isolates
[9] = MIC 8 μg/mL, 50 E. faecalis isolates
[10] = MIC 16 μg/mL, 50 E. faecalis isolates
[11] = MIC >64 μg/mL, 50 E. faecalis isolates
[12] = MIC […], 50 E. faecalis isolates
[13] = MIC 0.03 μg/mL, 19 S. pyogenes isolates
[14] = MIC 0.06 μg/mL, 19 S. pyogenes isolates

CN[C@H](CC(C)C)C(=O)N[C@H]1C(=O)N[C@@H](CC(N)=O)C(=O)N[C@H]2C(=O)N[C@H]3C(=O)N[C@H](C(=O)N[C@H](C(=O)O)c4cc(O)cc(O)c4-c4cc3ccc4O)[C@H](O)c3ccc(c(Cl)c3)Oc3cc2cc(c3O[C@@H]2O[C@H](CO)[C@@H](O)[C@H](O)[C@H]2O[C@H]2C[C@](C)(N)[C@H](O)[C@H](C)O2)Oc2ccc(cc2Cl)[C@H]1O [vancomycin, Vancomycin]
Cumulative percentage of isolates inhibited at MIC [1, 4]: 100.0% | Number of test isolates at MIC [1, 4]: 13 | Cumulative percentage of isolates inhibited at MIC ([1]; listed as VAN): 48.0% and 64.0% and 72.0% and 74.0% | Cumulative percentage of isolates inhibited at MIC ([2]; listed as VAN): 89.5% and 100.0% | Cumulative percentage of isolates inhibited at MIC ([3]; MIC 1 μg/mL): 100.0% | Number of test isolates at MIC ([3]; MIC 1 μg/mL): 1 | % S (Streptococcus pyogenes): 100% | MIC range (Streptococcus pyogenes): 0.25 to 0.5 µg/mL | Mode (Streptococcus pyogenes): 0.25 µg/mL | MIC50 (Streptococcus pyogenes; Streptococcus pyogenes): 0.25 µg/mL (≈ 0.173 µM) | MIC90 (Streptococcus pyogenes; Streptococcus pyogenes): 0.5 µg/mL (≈ 0.345 µM) | MIC range (Streptococcus agalactiae; [5]): 0.25 to 1 µg/mL | % S (Streptococcus agalactiae; 20 Streptococcus agalactiae clinical isolates, MXF by FDA breakpoints): 100% | MIC50 (Streptococcus agalactiae; Streptococcus agalactiae): 0.5 µg/mL (≈ 0.345 µM) | MIC90 (Streptococcus agalactiae; Streptococcus agalactiae): 0.5 µg/mL (≈ 0.345 µM) | Mode (Streptococcus agalactiae; [5]): 0.5 µg/mL | MIC (E. coli MMX 1312; Escherichia coli, MMX1312, read-out: MIC): > 16 µg/mL

piperacillin/tazobactam [piperacillin-tazobactam]
Cumulative percentage of isolates inhibited at MIC [1, 6]: 10.0% | Number of test isolates at MIC [1, 6]: 4 | Cumulative percentage of isolates inhibited at MIC [1, 7]: 32.0% | Number of test isolates at MIC [1, 7]: 11 | Cumulative percentage of isolates inhibited at MIC [1, 8]: 70.0% | Number of test isolates at MIC [1, 8]: 19 | Cumulative percentage of isolates inhibited at MIC [1, 9]: 90.0% | Number of test isolates at MIC [1, 9]: 10 | Cumulative percentage of isolates inhibited at MIC [1, 10]: 98.0% | Number of test isolates at MIC [1, 10]: 4 | Cumulative percentage of isolates inhibited at MIC [1, 11]: 100.0% | Number of test isolates at MIC [1, 11]: 1 | Cumulative percentage of isolates inhibited at MIC [1, 12]: 2.0% | Number of test isolates at MIC [1, 12]: 1 | Cumulative percentage of isolates inhibited at MIC [2, 13]: 21.1% | Number of test isolates at MIC [2, 13]: 4 | Cumulative percentage of isolates inhibited at MIC [2, 14]: 89.5% | Number of test isolates at MIC [2, 14]: 13 | Number of test isolates at MIC ([2]; MIC […], 19 S. pyogenes isolates): 1 | Cumulative percentage of isolates inhibited at MIC ([3]; MIC 0.015 μg/mL): 6.7% | Number of test isolates at MIC ([3]; MIC 0.015 μg/mL): 1 | Cumulative percentage of isolates inhibited at MIC ([3]; MIC 0.03 μg/mL): 26.7% | Number of test isolates at MIC ([3]; MIC 0.03 μg/mL): 3 | Cumulative percentage of isolates inhibited at MIC ([3]; MIC 0.06 μg/mL): 46.7% | Number of test isolates at MIC ([3]; MIC 0.06 μg/mL): 3 | Cumulative percentage of isolates inhibited at MIC ([3]; MIC 1 μg/mL): 66.7% | Number of test isolates at MIC ([3]; MIC 1 μg/mL): 1 | Cumulative percentage of isolates inhibited at MIC ([3]; MIC 2 μg/mL): 80.0% | Number of test isolates at MIC ([3]; MIC 2 μg/mL): 2 | Cumulative percentage of isolates inhibited at MIC ([3]; MIC 4 μg/mL): 100.0% | Number of test isolates at MIC ([3]; MIC 4 μg/mL): 3 | Number of test isolates at MIC ([3]; MIC […]): 1 | MIC50 (Streptococcus pyogenes): 0.06 µg/mL | MIC90 (Streptococcus pyogenes): 0.12 µg/mL | MIC range (Streptococcus pyogenes): 0.03 to 0.25 µg/mL | Mode (Streptococcus pyogenes): 0.06 µg/mL | MIC50 (Streptococcus agalactiae; [5]): 0.25 µg/mL | MIC90 (Streptococcus agalactiae; [5]): 0.25 µg/mL | MIC range (Streptococcus agalactiae; [5]): 0.12 to 0.25 µg/mL | Mode (Streptococcus agalactiae; [5]): 0.25 µg/mL | MIC (E. coli MMX 1312): 16/4
